Laboratory results as given in patent US12692253B2, “Antimicrobial compounds and methods” (Curza Global, LLC, priority 2019, dated 2026).
Where two headings read alike, the source gives them in different places.

Key:
[1] = test system: E. coli S30 extract (bacterial protein synthesis); assay: E. coli S30 extract coupled transcription-translation luciferase assay (inhibition of bacterial protein synthesis); assay type: biochemical; conditions: read-out: S30 IC50 (μM/% inhib.)
In short: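 Coupled transcription-translation in E. coli S30 circular-DNA extract expressing luciferase from pBESTluc, with 8-point 2-fold compound dilutions; 1 hour at 37 °C, stopped at 4 °C. Luminescence read; % inhibition versus no-inhibitor wells, no-DNA wells as background.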

[2] = test system: E. faecalis (Ef); assay: Broth microdilution minimum inhibitory concentration (MIC), CLSI; assay type: cell-based; conditions: for MIC: Enterococcus faecalis, read-out: Ef + bicarb MIC
In short: (§1)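 Two-fold serial dilutions in CAMHB, optionally with sodium bicarbonate (6.25 or 25 mM final) or heat-inactivated human serum (0-50%), 8 concentrations, triplicate. Inoculum 5×10^4 CFU/well from log-phase cultures grown at 35±2 °C to 0.5 McFarland.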

[3] = test system: S. aureus (Sa); assay: as above; assay type: cell-based; conditions: Staphylococcus aureus, read-out: Sa + bicarb MIC
In short: as §1

[4] = test system: P. aeruginosa (Pa); assay: as above; assay type: cell-based; conditions: Pseudomonas aeruginosa, read-out: Pa MIC + bicarb
In short: as §1

[5] = test system: E. coli (Ec); assay: as above; assay type: cell-based; conditions: Escherichia coli, read-out: E. coli + bicarb MIC
In short: as §1

[6] = test system: A. baumannn (Ab); assay: as above; assay type: cell-based; conditions: read-out: Ab + bicarb MIC
In short: as §1

[7] = target: Rabbit Reticulocyte Lysate (eukaryotic protein synthesis); assay: Rabbit reticulocyte lysate luciferase assay (inhibition of eukaryotic protein synthesis); assay type: biochemical; conditions: read-out: Rabbit reticulocyte IC50 (μM/% inhib.)
In short: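 In vitro translation of luciferase control RNA in nuclease-treated rabbit reticulocyte lysate with amino acid mixture, compounds in 2-fold serial dilution, 90 minutes at 30° C. Luminescence read after luciferase reagent; % inhibition relative to water no-inhibitor controls, with no-RNA background wells.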

[8] = growth medium with sodium bicarbonate
[9] = A. baumannn, growth medium with sodium bicarbonate
[10] = class by IC50 or % inhibition @ 1 μM
[11] = growth medium supplemented with sodium bicarbonate

| SMILES | IC50 ([1]; % inhibition @ 1 μM) [µM] | MIC [2, 8] [µg/mL] | MIC [3, 8] [µg/mL] | MIC [4, 8] [µg/mL] | MIC [5, 8] [µg/mL] | MIC [6, 9] [µg/mL] | IC50 ([7]; % inhibition @ 1 μM) [µM] | IC50 [1, 10] [µM] | MIC [2, 11] [µg/mL] | MIC [3, 11] [µg/mL] | MIC [4, 11] [µg/mL] | MIC [5, 11] [µg/mL] | MIC ([6]; Acinetobacter baumannii) [µg/mL] | IC50 [7, 10] [µM] | Ef + bicarb MIC [2, 8] |
| --- | --- | --- | --- | --- | --- | --- | --- | --- | --- | --- | --- | --- | --- | --- | --- |
| CC(C)(N)C(=O)N1CCN(C(=O)Nc2ccn(-c3ccc(CCN4C[C@@H]5[C@H](C4)[C@H]5C(N)CN)cc3)c(=O)n2)CC1 (some centres unmarked) [Compound 213] | ≥ 1 | > 32 | > 32 | > 32 | < 8 | > 32 | ≥ 1 |  |  |  |  |  |  |  |  |
| CC(C)(N)C(=O)N1CCN(C(=O)Nc2ccn(-c3ccc(CN4C5CCC4CC(N)C5)cc3)c(=O)n2)CC1 (centres unmarked) [Compound 58] |  |  |  |  |  |  |  | < 0.5 | 8 to 32 | < 8 | > 32 | < 8 | > 32 | ≥ 1 |  |
| CC(C)(N)C(=O)N1CCN(C(=O)Nc2ccn(-c3cccc(CCN4C[C@H]5C[C@@]5(N)C4)c3)c(=O)n2)CC1 [Compound 144] |  |  |  |  |  |  |  | ≥ 1 | > 32 | > 32 | > 32 | 8 to 32 | > 32 | ≥ 1 |  |
| CC(C)(N)C(=O)N1CCN(C(=O)Nc2ccn(-c3cccc(CCN4CC5(CC(N)C5)C4)c3)c(=O)n2)CC1 [Compound 109] |  |  |  |  |  |  |  | < 0.5 | > 32 | < 8 | > 32 | < 8 | > 32 | ≥ 1 |  |
| CC(C)(N)C(=O)N1CCN(C(=O)Nc2ccn(-c3ccc(CCN4CCC5(CCC5N)CC4)cc3)c(=O)n2)CC1 (centres unmarked) [Compound 95] |  |  |  |  |  |  |  | < 0.5 | > 32 | < 8 | > 32 | < 8 | > 32 | ≥ 1 |  |
| CC(Cc1ccc(-n2ccc(NC(=O)N3CCN(C(=O)CN)CC3)nc2=O)cc1)N1C[C@@H]2[C@@H](CN)[C@@H]2C1 (some centres unmarked) [Compound 227] | 0.5 to 1 | < 8 | < 8 | > 32 | < 8 | > 32 | ≥ 1 |  |  |  |  |  |  |  |  |
| C[C@@](N)(CO)C(=O)N1CCN(C(=O)Nc2ccn(-c3ccc(CCN4CC5CC5(CN)C4)cc3)c(=O)n2)CC1 (some centres unmarked) [Compound 120] |  |  |  |  |  |  |  | < 0.5 | 8 to 32 | < 8 | 8 to 32 | < 8 | > 32 | ≥ 1 |  |
| CCN(Cc1ccc(-n2ccc(NC(=O)N3CCN(C(=O)C(C)(C)N)CC3)nc2=O)cc1)C12CC(N)(C1)C2 [Compound 170] | < 0.5 | > 32 | > 32 | > 32 | < 8 | > 32 | ≥ 1 |  |  |  |  |  |  |  |  |
| CCC(Cc1ccc(-n2ccc(NC(=O)N3CCN(C(=O)C(C)(C)N)CC3)nc2=O)cc1)N1CC2CCC(N)C2C1 (centres unmarked) [Compound 217] | < 0.5 | < 8 | < 8 | > 32 | < 8 | > 32 | ≥ 1 |  |  |  |  |  |  |  |  |
| Cc1cc(-n2ccc(NC(=O)N3CCN(C(=O)C(C)(C)N)CC3)nc2=O)ccc1CCN1CC2CC2(CN)C1 (centres unmarked) [Compound 130] |  |  |  |  |  |  |  | < 0.5 | < 8 | < 8 | 8 to 32 | < 8 | 8 to 32 | ≥ 1 |  |
| CC(C)(N)C(=O)N1CCN(C(=O)Nc2ccn(-c3ccc(CCCN4CC5CC5(CN)C4)cc3)c(=O)n2)CC1 (centres unmarked) [Compound 184] | ≥ 1 | 8 to 32 | < 8 | > 32 | < 8 | > 32 | ≥ 1 |  |  |  |  |  |  |  |  |
| CC(C)(N)C(=O)N1CCN(C(=O)Nc2ccn(-c3ccc(CNC45CC(CN)(C4)C5)cc3)c(=O)n2)CC1 [Compound 173] | ≥ 1 | > 32 | > 32 | > 32 | < 8 | > 32 | ≥ 1 |  |  |  |  |  |  |  |  |
| NC[C@@H]1[C@H]2CN(CCc3ccc(-n4ccc(NC(=O)N5CC6(CC(N)C6)C5)nc4=O)cc3)C[C@@H]12 [Compound 149] |  |  |  |  |  |  |  | ≥ 1 | > 32 | 8 to 32 | > 32 | 8 to 32 | > 32 | ≥ 1 |  |
| CC(Cc1ccc(-n2ccc(NC(=O)N3CCN(C(=O)C(C)(C)N)CC3)nc2=O)cc1)[N+]1(C)C[C@@H]2[C@@H](CN)[C@@H]2C1 (some centres unmarked) [Compound 220] | < 0.5 | 8 to 32 | < 8 | > 32 | < 8 | > 32 | ≥ 1 |  |  |  |  |  |  |  |  |
| CC(=O)NC[C@@H]1[C@H]2CN(C(C)Cc3ccc(-n4ccc(NC(=O)N5CCN(C(=O)C(C)(C)N)CC5)nc4=O)cc3)C[C@@H]12 (some centres unmarked) [Compound 212] | ≥ 1 | > 32 | > 32 | > 32 | > 32 | > 32 | ≥ 1 |  |  |  |  |  |  |  |  |
| CC(Cc1ccc(-n2ccc(NC(=O)N3CCN(C(=O)C(C)(C)N)CC3)nc2=O)cc1)N1CC2CCC(N)CC2C1 (centres unmarked) [Compound 215] | < 0.5 |  | < 8 | > 32 | < 8 | > 32 | ≥ 1 |  |  |  |  |  |  |  | ++ (An MIC value (μg/mL) that is 8 μg/mL or greater and less than 32 μg/mL) |
| CC(C)(N)C(=O)N1CCN(C(=O)Nc2ccn(-c3ccc(CN4C[C@@H]5[C@@H](N)[C@@H]5C4)cc3)c(=O)n2)CC1 [Compound 3] |  |  |  |  |  |  |  | < 0.5 | < 8 | < 8 | 8 to 32 | < 8 | < 8 | ≥ 1 |  |
| CC(Cc1ccc(-n2ccc(NC(=O)N3CCN(C(=O)C(N)CCCN)CC3)nc2=O)cc1)N1C[C@@H]2[C@@H](CN)[C@@H]2C1 (some centres unmarked) [Compound 239] | < 0.5 | > 32 | 8 to 32 | > 32 | < 8 | > 32 | ≥ 1 |  |  |  |  |  |  |  |  |
| CC(CN1C[C@@H]2[C@@H](CN)[C@@H]2C1)c1ccc(-n2ccc(NC(=O)N3CCN(C(=O)C(C)(C)N)CC3)nc2=O)cc1 (some centres unmarked) [Compound 121] |  |  |  |  |  |  |  | 0.5 to 1 | 8 to 32 | < 8 | 8 to 32 | < 8 | > 32 | ≥ 1 |  |
| CC(Cc1ccc(-n2ccc(NC(=O)N3CCN(C(=O)C(C)(C)N)CC3)nc2=O)cc1)N(CCO)C1CC2(CC(N)C2)C1 (centres unmarked) [Compound 197] | ≥ 1 | 8 to 32 | < 8 | > 32 | < 8 | > 32 | ≥ 1 |  |  |  |  |  |  |  |  |
| CC(C)(N)C(=O)N1CCN(C(=O)Nc2ccn(-c3ccc(CN4CCC5(N)CC5C4)cc3)c(=O)n2)CC1 (centres unmarked) [Compound 13] |  |  |  |  |  |  |  | 0.5 to 1 | < 8 | < 8 | > 32 | < 8 | > 32 | ≥ 1 |  |
| CC(C)(N)C(=O)N1CCN(C(=O)Nc2ccn(-c3ccc(C[C@H](N)C(=O)N4CC5CC5(CN)C4)cc3)c(=O)n2)CC1 (some centres unmarked) [Compound 183] | ≥ 1 | > 32 | > 32 | > 32 | > 32 | > 32 | ≥ 1 |  |  |  |  |  |  |  |  |
| CC(C)(N)C(=O)N1CCN(C(=O)Nc2ccn(-c3ccc(CN4CC5(CCC5N)C4)cc3)c(=O)n2)CC1 (centres unmarked) [Compound 60] |  |  |  |  |  |  |  | < 0.5 | > 32 | < 8 | > 32 | < 8 | > 32 | ≥ 1 |  |
